Laboratory results reported in patent publication US7754896B2, “Indol-alanine derivatives as selective S1P4-agonists” (Novartis AG, priority 2004, dated 2010).

Target: T1, S1P4 (Homo sapiens, UniProt O95977)
T1 construct: expressed in transfected cells
T1 sequence (O95977 1-384): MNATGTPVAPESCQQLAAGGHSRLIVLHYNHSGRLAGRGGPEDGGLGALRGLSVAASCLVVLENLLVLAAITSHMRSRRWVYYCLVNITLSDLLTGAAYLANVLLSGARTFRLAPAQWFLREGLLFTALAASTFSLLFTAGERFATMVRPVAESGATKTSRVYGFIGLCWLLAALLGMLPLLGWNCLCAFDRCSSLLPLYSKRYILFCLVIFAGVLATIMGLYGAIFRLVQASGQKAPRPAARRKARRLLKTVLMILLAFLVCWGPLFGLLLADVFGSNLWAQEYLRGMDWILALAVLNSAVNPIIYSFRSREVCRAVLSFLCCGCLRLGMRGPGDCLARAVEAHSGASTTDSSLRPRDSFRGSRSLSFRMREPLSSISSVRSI
Assay: EC50 for S1P4 'in this assay' (GTPγS binding or calcium mobilization, not specified)
Assay type: cell-based
Details: assay format not specified ('this assay')
Description: The selection of the clones to be tested in the GTPγS assay is based on the real time PCR assays. CHO clones expressing large amounts of human S1P4 are used in these experiments. Membrane proteins are prepared as described above. The basic protocol of GTPγ^35S-binding assay used is described in a recent publication (Brinkmann et al. 2002, J. Biol. Chem, 277, 21453) with the modifications described here below. To characterize the GTPγ^35S-binding to membrane proteins from CHO cells expressing S1P, WGA coated PVT beads (SPA-bead, Amersham Biosciences) are used. Because β-rays of GTPγ^35S have […] in water solution, the plates are centrifuged to minimize non-specific effects caused by the non bound GTPγ^35S. The assay is performed in 96-well Optiplates (Packard, Cat. N^o 6005190) in final volume of 225 μl/well. […] The plates are then centrifuged for 10 minutes at 2000 rpm and counted with a TopCount instrument (Packard). […]
CHO cells are plated in black Costar plate (96 or 384 well, 50,000 cells or 12,500 cells, respectively) in a MEM with FCS and cultured for 20-24 h at 37° C. in a CO2 incubator. […] After measuring the baseline for 40 sec, the agonist in HBSS is added and the fluorescence is measured at intervals of 2 sec for 3 to 5 min. […]

EC50: 432 nM
Structure (SMILES): CCc1ccccc1-c1cccc2[nH]c(C(=O)NC[C@@H](N)C(=O)O)cc12 [Example 1, 3-(4-(2-Ethylphenyl)-2-carboxamido-indole)-D-alanine]
